{"source": "patent US10294202B2", "about": "“Pyrrolidinones as herbicides” (FMC Corporation, priority 2013, dated 2019)", "key": {"foxtail, giant": {"tested_on": "foxtail, giant", "assay": "Test C pre-/postemergence herbicide test", "format": "in vivo, Setaria faberii", "summary_of_the_method": "(§1)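 Visual rating, 0 (no effect) to 100 (complete control), versus untreated controls after 13 to 15 days in the greenhouse. Pre: seeds in loam/sand, sprayed at planting. Post: 1- to 4-leaf plants (2 to 18 cm) in peat-based mix. Compounds in non-phytotoxic solvent plus surfactant.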"}, "barnyardgrass": {"tested_on": "barnyardgrass", "assay": "Test C pre-/postemergence herbicide test", "format": "in vivo, Echinochloa crus-galli", "summary_of_the_method": "as §1"}, "ragweed": {"tested_on": "ragweed", "assay": "Test A pre-/postemergence herbicide test", "format": "in vivo, Ambrosia elatior", "summary_of_the_method": "(§2)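 Seeds sown in loam soil/sand blend received a preemergence directed soil spray of test chemical in non-phytotoxic solvent with surfactant; postemergence plants (2–10 cm, one- to two-leaf stage) were sprayed with the same formulation. After about 10 days in greenhouse, injury was rated visually versus untreated controls, 0 (no effect) to 100 (complete control).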"}, "ducksalad": {"tested_on": "ducksalad", "assay": "Test B flooded paddy test", "format": "in vivo, Heteranthera limosa", "conditions": "500 g ai/ha, Flood; scale of 0 to 100 where 0 is no effect and 100 is complete control", "summary_of_the_method": "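Plants were grown to the 2-leaf stage, then pots were flooded to 3 cm above the soil and compound was applied directly into the paddy water, with that depth held throughout. After 13 to 15 days in a greenhouse, injury was rated visually against untreated controls on a 0 to 100 scale (100 = complete control).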"}, "morningglory": {"tested_on": "morningglory", "assay": "Test C pre-/postemergence herbicide test", "format": "in vivo, Ipomoea coccinea", "summary_of_the_method": "as §1"}, "wheat": {"tested_on": "wheat", "assay": "Test A pre-/postemergence herbicide test", "format": "in vivo, Triticum aestivum", "conditions": "Postemergence", "summary_of_the_method": "as §2"}, "blackgrass": {"tested_on": "blackgrass", "assay": "Test A postemergence herbicide test", "format": "in vivo, Alopecurus myosuroides", "summary_of_the_method": "(§3)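 Plants at the one- to two-leaf stage, 2–10 cm tall, grown in loam/sand pots, received postemergence sprays of the test chemicals. After about 10 days in the greenhouse, injury was scored visually against untreated controls on a 0–100 scale (0 none, 100 complete control).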"}, "galium": {"tested_on": "galium", "assay": "Test A postemergence herbicide test", "format": "in vivo, Galium aparine", "summary_of_the_method": "as §3"}, "oilseed rape": {"tested_on": "oilseed rape", "assay": "Test C pre-/postemergence herbicide test", "format": "in vivo, Brassica napus", "summary_of_the_method": "as §1"}, "[1]": {"conditions": "Postemergence, 31 g ai/ha, scale 0 to 100 (0 no effect, 100 complete control)"}, "[2]": {"conditions": "Postemergence, 62 g ai/ha, scale 0 (no effect) to 100 (complete control)"}, "[3]": {"conditions": "Postemergence, 125 g ai/ha, scale 0 to 100 (0 no effect, 100 complete control)"}, "[4]": {"conditions": "Postemergence, 250 g ai/ha, scale 0 to 100 (0 no effect, 100 complete control)"}, "[5]": {"conditions": "Preemergence, 31 g ai/ha, scale 0 to 100, 0 is no effect and 100 is complete control"}, "[6]": {"conditions": "Preemergence, 62 g ai/ha, scale 0 to 100 (0 no effect, 100 complete control)"}, "[7]": {"conditions": "Preemergence, 125 g ai/ha, scale 0 to 100 (0 no effect, 100 complete control)"}, "[8]": {"conditions": "125 g ai/ha, visual rating on 0 to 100 scale (0 no effect, 100 complete control), approx. 10 days"}, "[9]": {"conditions": "500 g ai/ha, 0 to 100 scale (0 no effect, 100 complete control)"}, "[10]": {"conditions": "125 g ai/ha, 0 to 100 scale, 0 is no effect, 100 is complete control"}}}
{"molecule": "CN1CC(c2ccc(C(F)(F)F)cc2)C(C(=O)Nc2cccc(F)c2F)C1=O", "note": "(stereo not shown) [Compound 306]", "values": [{"measurement": "Plant response rating, Foxtail, Giant", "setting": "foxtail, giant; [1]", "value": 5}, {"measurement": "Plant response rating, Foxtail, Giant", "setting": "foxtail, giant; [2]", "value": 75}, {"measurement": "Plant response rating, Foxtail, Giant", "setting": "foxtail, giant; [3]", "value": 60}, {"measurement": "Plant response rating, Foxtail, Giant", "setting": "foxtail, giant; [4]", "value": 85}, {"measurement": "Foxtail, Giant plant response rating", "setting": "foxtail, giant; [5]", "value": 90}, {"measurement": "Foxtail, Giant plant response rating", "setting": "foxtail, giant; [6]", "value": 95}, {"measurement": "Plant response rating, Foxtail, Giant", "setting": "foxtail, giant; [7]", "value": 95}, {"measurement": "Plant response rating (scale of 0 to 100), Foxtail, Giant", "setting": "foxtail, giant; Preemergence, 250 g ai/ha", "value": 100}, {"measurement": "Plant response rating, Barnyardgrass", "setting": "barnyardgrass; [1]", "value": 0}, {"measurement": "Plant response rating, Barnyardgrass", "setting": "barnyardgrass; [2]", "value": 45}, {"measurement": "Plant response rating, Barnyardgrass", "setting": "barnyardgrass; [3]", "value": 85}, {"measurement": "Plant response rating, Barnyardgrass", "setting": "barnyardgrass; [4]", "value": 85}, {"measurement": "Barnyardgrass plant response rating", "setting": "barnyardgrass; [5]", "value": 90}, {"measurement": "Barnyardgrass plant response rating", "setting": "barnyardgrass; [6]", "value": 90}, {"measurement": "Plant response rating, Barnyardgrass", "setting": "barnyardgrass; [7]", "value": 90}, {"measurement": "Plant response rating (scale of 0 to 100; 0 is no effect, 100 is complete control), Barnyardgrass", "setting": "barnyardgrass; Preemergence, 250 g ai/ha", "value": 95}, {"measurement": "Plant response rating, Ragweed", "setting": "ragweed; Postemergence, 125 g ai/ha, visual rating on 0 to 100 scale (0 no effect, 100 complete control), approx. 10 days", "value": 20}, {"measurement": "Plant response rating, Ragweed", "setting": "ragweed; Postemergence, 500 g ai/ha, 0 to 100 scale (0 no effect, 100 complete control)", "value": 40}, {"measurement": "Ragweed plant response rating", "setting": "ragweed; Preemergence, 500 g ai/ha, visual rating on 0 to 100 scale (0 no effect, 100 complete control)", "value": 80}, {"measurement": "Plant response rating, Ducksalad", "setting": "ducksalad", "value": 100}, {"measurement": "Plant response rating, Morningglory", "setting": "morningglory; [1]", "value": 0}, {"measurement": "Plant response rating, Morningglory", "setting": "morningglory; [2]", "value": 35}, {"measurement": "Plant response rating, Morningglory", "setting": "morningglory; [3]", "value": 65}, {"measurement": "Plant response rating, Morningglory", "setting": "morningglory; [4]", "value": 5}, {"measurement": "Morningglory plant response rating", "setting": "morningglory; [5]", "value": 0}, {"measurement": "Morningglory plant response rating", "setting": "morningglory; [6]", "value": 35}, {"measurement": "Plant response rating, Morningglory", "setting": "morningglory; [7]", "value": 35}, {"measurement": "Plant response rating (scale of 0 to 100), Morningglory", "setting": "morningglory; Preemergence, 250 g ai/ha", "value": 35}, {"measurement": "Plant response rating, Wheat", "setting": "wheat; [8]", "value": 50}, {"measurement": "Plant response rating, Wheat", "setting": "wheat; [9]", "value": 60}, {"measurement": "Plant response rating, Blackgrass", "setting": "blackgrass; [8]", "value": 50}, {"measurement": "Plant response rating, Blackgrass", "setting": "blackgrass; [9]", "value": 60}, {"measurement": "Plant response rating, Galium", "setting": "galium; [8]", "value": 60}, {"measurement": "Plant response rating, Galium", "setting": "galium; [9]", "value": 70}, {"measurement": "Plant response rating, Oilseed Rape", "setting": "oilseed rape; [1]", "value": 0}, {"measurement": "Plant response rating, Oilseed Rape", "setting": "oilseed rape; [2]", "value": 50}, {"measurement": "Plant response rating, Oilseed Rape", "setting": "oilseed rape; [3]", "value": 40}, {"measurement": "Plant response rating, Oilseed Rape", "setting": "oilseed rape; [4]", "value": 70}, {"measurement": "Oilseed Rape plant response rating", "setting": "oilseed rape; [5]", "value": 50}, {"measurement": "Oilseed Rape plant response rating", "setting": "oilseed rape; [6]", "value": 70}, {"measurement": "Plant response rating, Oilseed Rape", "setting": "oilseed rape; [7]", "value": 75}, {"measurement": "Plant response rating (scale of 0 to 100), Oilseed Rape", "setting": "oilseed rape; Preemergence, 250 g ai/ha", "value": 75}]}
{"molecule": "O=C1NCC(c2ccc(C(F)(F)F)cc2)C1C(=O)Nc1cccc(F)c1F", "note": "(racemic) [Compound 202]", "values": [{"measurement": "Plant response rating, Foxtail, Giant", "setting": "foxtail, giant; [1]", "value": 5}, {"measurement": "Plant response rating, Foxtail, Giant", "setting": "foxtail, giant; [2]", "value": 25}, {"measurement": "Plant response rating, Foxtail, Giant", "setting": "foxtail, giant; [3]", "value": 70}, {"measurement": "Plant response rating, Foxtail, Giant", "setting": "foxtail, giant; [4]", "value": 85}, {"measurement": "Foxtail, Giant plant response rating", "setting": "foxtail, giant; [5]", "value": 90}, {"measurement": "Foxtail, Giant plant response rating", "setting": "foxtail, giant; [6]", "value": 90}, {"measurement": "Plant response rating, Foxtail, Giant", "setting": "foxtail, giant; [7]", "value": 95}, {"measurement": "Plant response rating (scale of 0 to 100), Foxtail, Giant", "setting": "foxtail, giant; Preemergence, 250 g ai/ha", "value": 98}, {"measurement": "Plant response rating, Barnyardgrass", "setting": "barnyardgrass; [1]", "value": 25}, {"measurement": "Plant response rating, Barnyardgrass", "setting": "barnyardgrass; [2]", "value": 65}, {"measurement": "Plant response rating, Barnyardgrass", "setting": "barnyardgrass; [3]", "value": 65}, {"measurement": "Plant response rating, Barnyardgrass", "setting": "barnyardgrass; [4]", "value": 85}, {"measurement": "Barnyardgrass plant response rating", "setting": "barnyardgrass; [5]", "value": 90}, {"measurement": "Plant response rating, Barnyardgrass", "setting": "barnyardgrass; Preemergence, 62 g ai/ha, scale 0 to 100", "value": 90}, {"measurement": "Plant response rating, Barnyardgrass", "setting": "barnyardgrass; [7]", "value": 95}, {"measurement": "Plant response rating (scale of 0 to 100; 0 is no effect, 100 is complete control), Barnyardgrass", "setting": "barnyardgrass; Preemergence, 250 g ai/ha", "value": 95}, {"measurement": "Plant response rating, Ragweed", "setting": "ragweed; 125 g ai/ha, visual rating, 0 to 100 scale, 0 no effect, 100 complete control, approximately 10 days, preemergence", "value": 50}, {"measurement": "Plant response rating, Ragweed", "setting": "ragweed; Postemergence, 125 g ai/ha, 0 to 100 scale, 0 is no effect, 100 is complete control", "value": 30}, {"measurement": "Ragweed plant response rating (0 to 100 scale, 0 is no effect, 100 is complete control)", "setting": "ragweed; Postemergence, 500 g ai/ha", "value": 50}, {"measurement": "Plant response rating, Ragweed", "setting": "ragweed; preemergence, 500 g ai/ha, 0 to 100 scale, 0 is no effect and 100 is complete control", "value": 90}, {"measurement": "Plant response rating, Ducksalad", "setting": "ducksalad", "value": 100}, {"measurement": "Plant response rating, Morningglory", "setting": "morningglory; [1]", "value": 5}, {"measurement": "Plant response rating, Morningglory", "setting": "morningglory; [2]", "value": 10}, {"measurement": "Plant response rating, Morningglory", "setting": "morningglory; [3]", "value": 70}, {"measurement": "Plant response rating, Morningglory", "setting": "morningglory; [4]", "value": 10}, {"measurement": "Morningglory plant response rating", "setting": "morningglory; [5]", "value": 15}, {"measurement": "Morningglory plant response rating", "setting": "morningglory; [6]", "value": 25}, {"measurement": "Plant response rating, Morningglory", "setting": "morningglory; [7]", "value": 25}, {"measurement": "Plant response rating (scale of 0 to 100), Morningglory", "setting": "morningglory; Preemergence, 250 g ai/ha", "value": 40}, {"measurement": "Plant response rating, Wheat", "setting": "wheat; [10]", "value": 40}, {"measurement": "Wheat plant response rating (0 to 100 scale, 0 is no effect, 100 is complete control)", "setting": "wheat; 500 g ai/ha", "value": 50}, {"measurement": "Plant response rating, Blackgrass", "setting": "blackgrass; [10]", "value": 50}, {"measurement": "Blackgrass plant response rating (0 to 100 scale, 0 is no effect, 100 is complete control)", "setting": "blackgrass; 500 g ai/ha", "value": 50}, {"measurement": "Plant response rating, Galium", "setting": "galium; [10]", "value": 60}, {"measurement": "Galium plant response rating (0 to 100 scale, 0 is no effect, 100 is complete control)", "setting": "galium; 500 g ai/ha", "value": 60}, {"measurement": "Plant response rating, Oilseed Rape", "setting": "oilseed rape; [1]", "value": 0}, {"measurement": "Plant response rating, Oilseed Rape", "setting": "oilseed rape; [2]", "value": 0}, {"measurement": "Plant response rating, Oilseed Rape", "setting": "oilseed rape; [3]", "value": 50}, {"measurement": "Plant response rating, Oilseed Rape", "setting": "oilseed rape; [4]", "value": 50}, {"measurement": "Oilseed Rape plant response rating", "setting": "oilseed rape; [5]", "value": 25}, {"measurement": "Oilseed Rape plant response rating", "setting": "oilseed rape; [6]", "value": 80}, {"measurement": "Plant response rating, Oilseed Rape", "setting": "oilseed rape; [7]", "value": 85}, {"measurement": "Plant response rating (scale of 0 to 100), Oilseed Rape", "setting": "oilseed rape; Preemergence, 250 g ai/ha", "value": 90}]}
